Test results from US20040248887A1, “Inhibitors of cathepsin S” (IRM LLC, priority 2003, published 2004).

target: Cathepsin S (Homo sapiens, UniProt P25774); assay: Cathepsin S inhibition, fluorogenic peptide substrate kinetic assay; format: biochemical; details: Table II; Cathepsin S inhibition constant, pH5.5; read-out: Ki Cat. S
Outline: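 Ki values derive from apparent constants fitted to progress curves, corrected for competition with substrate via [S] and Km. Kinetics were monitored at 380 nm excitation/450 nm emission, after substrate addition (Ac-HPVK-ACC, 50 μM final) to start the reaction.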

Cathepsin S, sequence (P25774 115-331, species assumed): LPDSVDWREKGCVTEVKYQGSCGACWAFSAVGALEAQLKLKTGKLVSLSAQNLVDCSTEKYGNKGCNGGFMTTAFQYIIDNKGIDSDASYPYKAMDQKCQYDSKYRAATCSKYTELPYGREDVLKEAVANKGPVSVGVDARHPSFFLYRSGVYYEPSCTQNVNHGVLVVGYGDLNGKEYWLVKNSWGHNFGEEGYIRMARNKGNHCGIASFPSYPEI

| Compound | Ki [nM] |
| --- | --- |
| O=C(N[C@@H](CC1CCCCC1)C(=O)NCCN1CCc2cc(F)ccc21)C1CC(=O)N(Cc2ccccc2)C1 (stereo partly drawn) [Compound 65, 1-Benzyl-5-oxo-pyrrolidine-3-carboxylic acid (S)-{2-cyclohexyl-1-[2-(5-fluoro-2,3-dihydro-indol-1-yl)-ethylcarbamoyl]-ethyl}-amide] | < 1000 |
| O=C(Nc1ccc(-c2ccccc2)cc1)N[C@@H](CC1CCCCC1)C(=O)NCCN1CCc2cc(F)ccc21 [Compound 225, (S)-2-(3-Biphenyl-4-yl-ureido)-3-cyclohexyl-N-[2-(5-fluoro-2,3-dihydro-indol-1-yl)-ethyl]-propionamide] | < 1000 |
| COc1cccc(C(=O)N[C@@H](CCC2CCCCC2)C(=O)NCCN2CCc3c(OC)cccc32)c1 [Compound 15, (S)-N-{3-Cyclohexyl-1-[2-(4-methoxy-2,3-dihydro-indol-1-yl)-ethylcarbamoyl]-propyl}-3-methoxy-benzamide] | < 10000 |
| C[C@@H](CNc1ccc(S(N)(=O)=O)cc1)NC(=O)[C@H](CC1CCCCC1)NC(=O)c1ccc(-c2cccc(F)c2)o1 [Compound 138, 5-(3-Fluoro-phenyl)-furan-2-carboxylic acid {2-cyclohexyl-1-(S)-[1-(S)-methyl-2-(4-sulfamoyl-phenylamino)-ethylcarbamoyl]-ethyl}-amide] | < 1000 |
| C[C@@H](CN1CC(C)(C)c2cc(F)ccc21)NC(=O)[C@H](CC(C)(C)C)NC(=O)C1CCOCC1 [Compound 270, Tetrahydro-pyran-4-carboxylic acid {1-(S)-[2-(5-fluoro-3,3-dimethyl-2,3-dihydro-indol-1-yl)-1-(S)-methyl-ethylcarbamoyl]-3,3-dimethyl-butyl}-amide] | < 1000 |
| Cc1cccc(C(=O)N[C@@H](CC(C)C)C(=O)N[C@@H](CCNC(N)=O)CN2CCc3cc(F)ccc32)c1 [Compound 45, (S,S)-N-{1-[1-(5-Fluoro-2,3-dihydro-indol-1-ylmethyl)-3-ureido-propylcarbamoyl]-3-methyl-butyl}-3-methyl-benzamide] | < 1000 |
| COc1cccc(C(=O)N[C@@H](CCC2CCCCC2)C(=O)NCCN2CCc3ccc(F)cc32)c1 [Compound 10, (S)-N-{3-Cyclohexyl-1-[2-(6-fluoro-2,3-dihydro-indol-1-yl)-ethylcarbamoyl]-propyl}-3-methoxy-benzamide] | < 10000 |
| C[C@@H](CNc1cc(Cl)ccc1F)NC(=O)[C@H](CC1CCCCC1)NC(=O)c1ccc(-c2cccc(F)c2)o1 [Compound 97, 5-(3-Fluoro-phenyl)-furan-2-carboxylic acid {1-(S)-[2-(5-chloro-2-fluoro-phenylamino)-1-(S)-methyl-ethylcarbamoyl]-2-cyclohexyl-ethyl}-amide] | < 1000 |
| COc1cccc(C(=O)N[C@@H](CCC2CCCCC2)C(=O)NCCN2CCc3cccc(OC)c32)c1 [Compound 8, (S)-N-{3-Cyclohexyl-1-[2-(7-methoxy-2,3-dihydro-indol-1-yl)-ethylcarbamoyl]-propyl}-3-methoxy-benzamide] | < 10000 |
| O=C(N[C@H](C(=O)N[C@H](CO)CN1CCc2cc(F)ccc21)c1ccc(Cl)cc1Cl)c1ccc(F)c(F)c1 [Compound 214, (S,S)-N-((3-(5-fluoroindolin-1-yl)-1-hydroxypropan-2-ylcarbamoyl)(2,4-dichlorophenyl)methyl)-3,4-difluorobenzamide] | < 1000 |
| (S)-{2-Cyclohexyl-1-[2-(5-fluoro-2,3-dihydro-indol-1-yl)-ethylcarbamoyl]-ethyl}-carbamic acid benzyl ester [Compound 220] | < 1000 |
| Cn1cnc(C(=O)N[C@@H](CC2CCCCC2)C(=O)NCCN2CCc3cc(F)ccc32)c1 [Compound 63, 1-Methyl-1H-imidazole-4-carboxylic acid (S)-{2-cyclohexyl-1-[2-(5-fluoro-2,3-dihydro-indol-1-yl)-ethylcarbamoyl]-ethyl}-amide] | < 1000 |
| O=C(NCCN1CCc2cc(F)ccc21)[C@H](CC1CCCCC1)NS(=O)(=O)c1cc2ccccc2s1 [Compound 234, (S)-2-(Benzo[b]thiophene-2-sulfonylamino)-3-cyclohexyl-N-[2-(5-fluoro-2,3-dihydro-indol-1-yl)-ethyl]-propionamide] | < 1000 |
| COc1ccc(NC(C)CNC(=O)[C@H](CC(C)C)NC(=O)c2cccc(C)c2)cc1 (mixture of isomers) [Compound 20, N-{1-(S)-[2-(4-Methoxy-phenylamino)-propylcarbamoyl]-3-methyl-butyl}-3-methyl-benzamide] | < 10000 |

Continued, values first:

| Ki [nM] | Compound |
| --- | --- |
| < 100 | CS(=O)(=O)c1cccc(C(=O)N[C@@H](CC2CCCCC2)C(=O)NCCN2CCc3cc(F)ccc32)c1 [Compound 80, N-(S)-{2-cyclohexyl-1-[2-(5-fluoro-2,3-dihydro-indol-1-yl)-ethylcarbarnoyl]-ethyl}-3-methanesulfonyl-benzamide] |
| < 100 | CS(=O)(=O)NCc1ccc(C(=O)N[C@@H](CC2CCCCC2)C(=O)NCCN2CCc3cc(F)ccc32)cc1 [Compound 79, N-(S)-{2-cyclohexyl-1-[2-(5-fluoro-2,3-dihydro-indol-1-yl)-ethylcarbamoyl]-ethyl}-4-(methanesulfonylamino-methyl)-benzamide] |
| < 100 | C[C@@H](CNc1ccc(OC(F)(F)F)cc1)NC(=O)[C@H](CC1CCCCC1)NC(=O)C1CCOCC1 [Compound 135, Tetrahydropyran-4-carboxylic acid {2-cyclohexyl-1-(S)-[1-(S)-methyl-2-(4-trifluoromethoxy-phenylamino)-ethylcarbamoyl]-ethyl}-amide] |
| < 100 | O=C(NCCN1CCc2cc(F)ccc21)[C@H](CC1CCCCC1)NS(=O)(=O)c1ccc(Cl)s1 [Compound 227, (S)-2-(5-Chloro-thiophene-2-sulfonylamino)-3-cyclohexyl-N-[2-(5-fluoro-2,3-dihydro-indol-1-yl)-ethyl]-propionamide] |
| < 100 | C[C@@H](CNc1cccc(OC(F)(F)F)c1)NC(=O)[C@H](CC1CCCCC1)NC(=O)c1ccc(-c2cccc(F)c2)o1 [Compound 111, 5-(3-Fluoro-phenyl)-furan-2-carboxylic acid {2-cyclohexyl-1-(S)-[1-(S)-methyl-2-(3-trifluoromethoxy-phenylamino)-ethylcarbamoyl]-ethyl}-amide] |
| < 100 | C[C@@H](CNc1cccc(C#N)c1)NC(=O)[C@H](CC1CCCCC1)NC(=O)c1ccc(-c2cccc(F)c2)o1 [Compound 100, 5-(3-Fluoro-phenyl)-furan-2-carboxylic acid {1-(S)-[2-(3-cyano-phenylamino)-1-(S)-methyl-ethylcarbamoyl]-2-cyclohexyl-ethyl}-amide] |
| < 100 | O=C(N[C@@H](CC1CCCCC1)C(=O)NCCN1CCc2cc(F)ccc21)c1ccc(-c2cccc(C(F)(F)F)c2)o1 [Compound 2, 5-(3-Trifluoromethyl-phenyl)-furan-2-carboxylic acid (S)-{2-cyclohexyl-1-[2-(5-fluoro-2,3-dihydro-indol-1-yl)-ethylcarbamoyl]-ethyl}-amide] |
| < 100 | COc1cccc(C(=O)N[C@@H](CC(C)(C)C)C(=O)N[C@@H](CO)CN2CCc3cc(F)ccc32)c1 [Compound 156, N-{1-(S)-[2-(5-Fluoro-2,3-dihydro-indol-1-yl)-1-(R)-hydroxymethyl-ethylcarbamoyl]-3,3-dimethyl-butyl}-3-methoxy-benzamide] |
| < 100 | COc1ccc(NC[C@H](C)NC(=O)[C@H](CC(C)(C)C)NC(=O)c2ccc(-c3cccc(F)c3)o2)cc1 [Compound 132, 5-(3-Fluoro-phenyl)-furan-2-carboxylic acid {1-(S)-[2-(4-methoxy-phenylamino)-1-(S)-methyl-ethylcarbamoyl]-3,3-dimethyl-butyl}-amide] |
| < 100 | O=C(NC(C(=O)NC(CO)CN1CCc2cc(F)ccc21)c1ccc(Cl)cc1Cl)c1ccco1 [Compound 209, N-(S)-((3-(5-fluoroindolin-1-yl)-1-hydroxypropan-2-(R)-ylcarbamoyl)(2,4-dichlorophenyl)methyl)furan-2-carboxamide] |
| < 100 | O=C(N[C@@H](CC1CCCCC1)C(=O)NCCN1CCc2cc(F)ccc21)c1ccco1 [Compound 9, Furan-2-carboxylic acid (S)-{2-cyclohexyl-1-[2-(5-fluoro-2,3-dihydro-indol-1-yl)-ethylcarbamoyl]-ethyl}-amide] |
| < 100 | C[C@@H](CNc1ccc(OC(F)(F)F)cc1)NC(=O)[C@H](CC1CCCC1)NC(=O)OC1CCOCC1 [Compound 190, (S,S)-{2-Cyclopentyl-1-[1-methyl-2-(4-trifluoromethoxy-phenylamino)-ethylcarbamoyl]-ethyl}-carbamic acid tetrahydropyran-4-yl ester] |
| < 100 | C[C@@H](CN1CCc2cc(F)ccc21)NC(=O)[C@H](CC(C)(C)C)NC(=O)C1CC1 [Compound 177, Cyclopropanecarboxylic acid {1-(S)-[2-(5-fluoro-2,3-dihydro-indol-1-yl)-1-(S)-methyl-ethylcarbamoyl]-3,3-dimethyl-butyl}-amide] |
| < 100 | C[C@@H](CNc1ccc(OC(F)(F)F)cc1)NC(=O)[C@H](CC1CCCCC1)NS(=O)(=O)c1cccc(OC(F)(F)F)c1 [Compound 182, (S,S)-3-Cyclohexyl-N-[1-methyl-2-(4-trifluoromethoxy-phenylamino)-ethyl]-2-(3-trifluoromethoxy-benzenesulfonylamino)-propionamide] |
| < 100 | CC(C)(C)C[C@H](NC(=O)c1ccc(-c2cccc(C(F)(F)F)c2)o1)C(=O)NCCN1CCc2cc(F)ccc21 [Compound 202, N-((S)-1-(2-(5-fluoroindolin-1-yl)ethylcarbamoyl)-3,3-dimethylbutyl)-5-(3-(trifluoromethyl)phenyl)furan-2-carboxamide] |
| < 100 | O=C(NCCN1CCc2cc(F)ccc21)[C@H](CC1CCCCC1)NS(=O)(=O)c1ccc(-c2cnco2)cc1 [Compound 246, (S)-3-Cyclohexyl-N-[2-(5-fluoro-2,3-dihydro-indol-1-yl)-ethyl]-2-(4-oxazol-5-yl-benzenesulfonylamino)-propionamide] |
